Measured values: US12673961B2 (Agios Pharmaceuticals, Inc., priority 2022, dated 2026)

target: T1, human PAH with the R408W mutation (Homo sapiens, UniProt P00439, R408W); assay: Cell Based Phenylalanine Flux Assay; conditions: A375 cells expressing human R408W PAH; 24 hrs with compound, then sepiapterin and 13C9,15N-Phenylalanine for 4 hours; 13C-Tyrosine by LC-MS; average where tested multiple times; read-out: AC50;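 note: Ten-point dose curve from 2-fold serial dilutions, run in duplicate at 0.5% DMSO final, tracer step used 20 µM sepiapterin and 800 µM labeled phenylalanine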
T1 construct: expressed in transfected cells
T1 sequence (P00439 1-452 R408W): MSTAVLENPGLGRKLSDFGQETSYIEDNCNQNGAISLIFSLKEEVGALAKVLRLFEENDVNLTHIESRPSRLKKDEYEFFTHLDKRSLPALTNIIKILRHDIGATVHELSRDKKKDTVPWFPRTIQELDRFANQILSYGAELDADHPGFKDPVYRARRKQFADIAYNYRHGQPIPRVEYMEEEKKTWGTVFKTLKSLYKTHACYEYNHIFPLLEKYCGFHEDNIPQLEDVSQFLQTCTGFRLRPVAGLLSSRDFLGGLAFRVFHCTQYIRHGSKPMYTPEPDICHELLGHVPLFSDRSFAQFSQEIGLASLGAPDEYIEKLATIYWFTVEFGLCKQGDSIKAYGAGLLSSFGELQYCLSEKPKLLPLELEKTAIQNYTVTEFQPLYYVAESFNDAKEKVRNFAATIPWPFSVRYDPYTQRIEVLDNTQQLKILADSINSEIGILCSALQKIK

| Compound | AC50 [nM] |
| --- | --- |
| CC(C)c1cccn2nc([C@H]3c4nc[nH]c4CCN3c3nnc(-c4cccnc4F)o3)cc12 [Example 2334, (R)-2-(2-fluoropyridin-3-yl)-5-(4-(4-isopropylpyrazolo[1,5-a]pyridin-2-yl)-1,4,6,7-tetrahydro-5H-imidazo[4,5-c]pyridin-5-yl)-1,3,4-oxadiazole] | > 5000 |
| Cc1cccc(-c2nnc(N3CCc4[nH]cnc4[C@H]3c3cc4ccccn4n3)o2)n1 [Example 2342, (S)-2-(6-methylpyridin-2-yl)-5-(4-(pyrazolo[1,5-a]pyridin-2-yl)-1,4,6,7-tetrahydro-5H-imidazo[4,5-c]pyridin-5-yl)-1,3,4-oxadiazole] | 1000 to 5000 |
| Cc1cccc(-c2nnc(N3CCc4[nH]cnc4[C@@H]3c3cc4ccccn4n3)o2)n1 [Example 2343, (R)-2-(6-methylpyridin-2-yl)-5-(4-(pyrazolo[1,5-a]pyridin-2-yl)-1,4,6,7-tetrahydro-5H-imidazo[4,5-c]pyridin-5-yl)-1,3,4-oxadiazole] | > 5000 |
| Cc1cccc(-c2nnc(N3CCc4[nH]cnc4[C@@H]3c3cc4c(C)cccn4n3)o2)n1 [Example 2344] | > 5000 |
| Cc1cccc(-c2nnc(N3CCc4[nH]cnc4[C@@H]3c3cc4c(C(F)F)cccn4n3)o2)n1 [Example 2346, (R)-2-(4-(4-(difluoromethyl)pyrazolo[1,5-a]pyridin-2-yl)-1,4,6,7-tetrahydro-5H-imidazo[4,5-c]pyridin-5-yl)-5-(6-methylpyridin-2-yl)-1,3,4-oxadiazole] | > 5000 |
| Cc1cccnc1-c1nnc(N2CCc3[nH]cnc3[C@H]2c2cc3cccc(C(F)F)n3n2)o1 [Example 2352, (S)-2-(4-(7-(difluoromethyl)pyrazolo[1,5-a]pyridin-2-yl)-1,4,6,7-tetrahydro-5H-imidazo [4,5-c]pyridin-5-yl)-5-(3-methylpyridin-2-yl)-1,3,4-oxadiazole] | 500 to 1000 |
| O=C(c1nnc(-c2ccc(F)cn2)o1)N1CCc2[nH]cnc2[C@H]1c1cc2ccccn2n1 [Example 2365, (S)-(5-(5-fluoropyridin-2-yl)-1,3,4-oxadiazol-2-yl)(4-(pyrazolo[1,5-a]pyridin-2-yl)-6,7-dihydro-1H-imidazo[4,5-c]pyridin-5(4H)-yl)methanone] | 1000 to 5000 |
| Cc1ccc2cc([C@H]3c4nc[nH]c4CCN3C(=O)c3nnc(-c4cnn(C)c4)o3)nn2c1 [Example 2381, (R)-(5-(1-methyl-1H-pyrazol-4-yl)-1,3,4-oxadiazol-2-yl)(4-(6-methylpyrazolo[1,5-a]pyridin-2-yl)-6,7-dihydro-1H-imidazo[4,5-c]pyridin-5(4H)-yl)methanone] | > 5000 |
| O=C(c1nnc(-c2cnn(C(F)(F)F)c2)o1)N1CCc2[nH]cnc2[C@H]1c1cc2cccc(C(F)(F)F)n2n1 [Example 2428, (S)-(5-(1-(trifluoromethyl)-1H-pyrazol-4-yl)-1,3,4-oxadiazol-2-yl)(4-(7-(trifluoromethyl)pyrazolo[1,5-a]pyridin-2-yl)-6,7-dihydro-1H-imidazo[4,5-c]pyridin-5(4H)-yl)methanone] | 1000 to 5000 |
| CN(C)c1ccc2c(C(=O)N3CCc4[nH]cnc4[C@@H]3c3cc4cccc(Cl)n4n3)cnn2c1 [Example 2475, (R)-(4-(7-chloropyrazolo [1,5-a]pyridin-2-yl)-6,7-dihydro-1H-imidazo[4,5-c]pyridin-5(4H)-yl)(6-(dimethylamino)pyrazolo[1,5-a]pyridin-3-yl)methanone] | > 5000 |
| CC(C)c1cccn2nc([C@@H]3c4nc[nH]c4CCN3c3nnc(-c4cccnn4)o3)cc12 [Example 2512, (S)-2-(4-(4-isopropylpyrazolo [1,5-a]pyridin-2-yl)-1,4,6,7-tetrahydro-5H-imidazo [4,5-c]pyridin-5-yl)-5-(pyridazin-3-yl)-1,3,4-oxadiazole] | 1000 to 5000 |
| (S)-(6-(methoxymethyl) pyrazolo[1,5-a]pyridin-3-yl)(4- (4-methylpyrazolo[1,5-a] pyridin-2-yl)-6,7-dihydro-1H- imidazo[4,5-c]pyridin- 5(4H)-yl)methanone [Example 1624] | 500 to 1000 |

Results, then the compound that gave them:

| AC50 [nM] | Compound |
| --- | --- |
| 500 to 1000 | Cc1ncccc1-c1nnc(N2CCc3[nH]cnc3[C@H]2c2cc3cccc(Cl)n3n2)o1 [Example 2330, (S)-2-(4-(7-chloropyrazolo [1,5-a]pyridin-2-yl)-1,4,6,7-tetrahydro-5H-imidazo [4,5-c]pyridin-5-yl)-5-(2-methylpyridin-3-yl)-1,3,4-oxadiazole] |
| < 500 | Cc1cccn2nc([C@@H]3c4nc[nH]c4CCN3c3nnc(-c4cccc(F)n4)o3)cc12 [Example 2361, (S)-2-(6-fluoropyridin-2-yl)-5-(4-(4-methylpyrazolo[1,5-a]pyridin-2-yl)-1,4,6,7-tetrahydro-5H-imidazo[4,5-c]pyridin-5-yl)-1,3,4-oxadiazole] |
| 1000 to 5000 | O=C(c1cn[nH]c1C(F)F)N1CCc2[nH]cnc2[C@H]1c1cc2ccccn2n1 [Example 2366, (S)-(5-(difluoromethyl)-1H-pyrazol-4-yl)(4-(pyrazolo[1,5-a]pyridin-2-yl)-6,7-dihydro-1H-imidazo[4,5-c]pyridin-5(4H)-yl)methanone] |
| 1000 to 5000 | O=C(c1nnc(C2CC2)o1)N1CCc2[nH]cnc2[C@H]1c1cc2ccc(F)cn2n1 [Example 2404, (S)-(5-cyclopropyl-1,3,4-oxadiazol-2-yl)(4-(6-fluoropyrazolo[1,5-a]pyridin-2-yl)-6,7-dihydro-1H-imidazo[4,5-c]pyridin-5(4H)-yl)methanone] |
| 1000 to 5000 | Cn1cc(-c2nnc(C(=O)N3CCc4[nH]cnc4[C@H]3c3cc4ccc(C(F)(F)F)cn4n3)o2)cn1 [Example 2416, (S)-(5-(1-methyl-1H-pyrazol-4-yl)-1,3,4-oxadiazol-2-yl)(4-(6-(trifluoromethyl)pyrazolo[1,5-a]pyridin-2-yl)-6,7-dihydro-1H-imidazo [4,5-c]pyridin-5(4H)-yl)methanone] |
| 1000 to 5000 | Cc1nnc(C(=O)N2CCc3[nH]cnc3[C@H]2c2cc3c(C4CC4)cccn3n2)o1 [Example 2494, (S)-(4-(4-cyclopropylpyrazolo [1,5-a]pyridin-2-yl)-1,4,6,7-tetrahydro-5H-imidazo [4,5-c]pyridin-5-yl)(5-methyl-1,3,4-oxadiazol-2-yl)methanone] |
